Assay results taken from patent US5446025A, “Formulations and method of the percutaneous administration of leuprolide” (Abbott Laboratories, priority 1992, dated 1995).

Format: physicochemical
Method: Partitioning studies of leuprolide free base and the acetate, palmitate, and decanesulfonate salts were conducted in Type I glass culture tubes fitted with poly(tetrafluroethylene)-lined caps. Octanol-saturated water was used to prepare solutions of leuprolide free base and the leuprolide salts at concentrations of 500 μg/ml. Ten ml of each solution and 10 ml of water-saturated octanol were placed in the glass tubes which were then tightly capped and shaken for 24 hours at 30° C. At the end of this time, the tubes were centrifuged at 2000 rpm for ten minutes. The water and octanol layers were separated and each analyzed for the concentrations of leuprolide or leuprolide salt. The octanol-water distribution coefficients, Kd, was calculated from the ratio of concentration in the non-aqueous phase and the aqueous phase.

CCNC(=O)[C@@H]1CCCN1C(=O)[C@H](CCCNC(=N)N)NC(=O)[C@H](CC(C)C)NC(=O)[C@@H](CC(C)C)NC(=O)[C@H](Cc1ccc(O)cc1)NC(=O)[C@H](CO)NC(=O)[C@H](Cc1c[nH]c2ccccc12)NC(=O)[C@H](Cc1c[nH]cn1)NC(=O)[C@@H]1CCC(=O)N1 [Leuprolide free base, leuprolide]
Lipophilicity relative to the acetate salt, as measured by the octanol/water distribution coefficient: roughly six
